Molecular target: T1, KRAS G12C 1-169, his-tagged protein, GDP-loaded (Homo sapiens, UniProt P01116, G12C)
T1 construct: KRAS G12C 1-169, his-tagged protein, GDP-loaded
Assay: Biochemical assay: covalent modification of KRAS G12C protein measured by mass spectrometry (RapidFire/TOF or Q-Exactive)
Details: covalent binding to KRAS G12C
Method: Test compounds are prepared as 10 mM stock solutions in DMSO (Fisher cat # BP-231-100). KRAS G12C 1-169, his-tagged protein, GDP-loaded is diluted to […] in buffer (20 mM Hepes, 150 mM NaCl, 1 mM MgCl2). Compounds are tested for activity as follows:
Compounds are diluted to 50× final test concentration in DMSO in 96-well storage plates. Compound stock solutions are vortexed before use and observed carefully for any sign of precipitation. […] The plate is then resealed with aluminum seal and stored on dry ice until analyzed as described below.
The above described assays are analyzed by mass spectrometry according to one of the following two procedures: […]
After another 30 minute equilibration time, a blank batch (i.e., buffer) is run to ensure equipment is operating properly. […] The method is then run and masses of each individual well recorded. […]
The masses and peak intensities of KRAS G12C protein species are measured using a Dionex RSLCnano system (Thermo Scientific) connected to a Q Exactive Plus mass spectrometer (Thermo Scientific). […]
The mass spectrometer is operated in profile mode at a resolution of 17500, 5 microscans, using 50 msec max injection time and an AGC target of 1e6, and a full mass range from 800-1850 m/z is recorded. […]

T1 sequence (P01116 1-169 isoform P01116-2 G12C): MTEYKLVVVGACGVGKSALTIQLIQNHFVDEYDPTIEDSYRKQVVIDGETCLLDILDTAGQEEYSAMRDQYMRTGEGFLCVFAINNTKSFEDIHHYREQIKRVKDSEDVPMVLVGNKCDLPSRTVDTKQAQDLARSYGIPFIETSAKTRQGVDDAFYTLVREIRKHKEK

Row | Structure (SMILES) | Binding %
1 | C=CC(=O)N1CCN(c2c3c(nc4c(F)c(-c5c(O)cccc5F)c(Cl)cc24)NC(=O)NC3)CC1 [Compound 1, 5-(4-acryloylpiperazin-1-yl)-7-chloro-9-fluoro-8-(2-fluoro-6-hydroxyphenyl)-3,4-dihydropyrimido [4,5-b]quinolin-2(1H)-one] | ++ (++ indicates binding activity greater than 50%)
2 | C=CC(=O)N1CCN(c2c3c(nc4c(F)c(-c5c(O)cccc5F)c(Cl)cc24)CCN(C)C3=O)CC1 [Compound 19, 10-(4-acryloylpiperazin-1-yl)-8-chloro-6-fluoro-7-(2-fluoro-6-hydroxyphenyl)-2-methyl-3,4-dihydrobenzo[b] [1,6]naphthyridin-1(2H)-one] | + (+ indicates binding activity up to 50%)
